Reference: ChEMBL document CHEMBL4177523, “Ser422 phosphorylation blocks human Tau cleavage by caspase-3: Biochemical implications to Alzheimer's Disease” (Bioorg Med Chem Lett, 2017)
Active and inactive are the calls of the source. No cut-off for these calls is given here. Square brackets hold non-standard residues; d marks the D form. Peptide text beside a SMILES is read from it. ξ: configuration not given here. ξpS = NC(COP(=O)(O)O)C(=O)O

Columns and labels:
Caspase-3 (Homo sapiens) [1] = biological target: T1, Caspase-3 (Homo sapiens) (UniProt P42574); assay: Substrate activity at recombinant human caspase-3 assessed as enzyme-mediated compound cleavage after 1 hr by RP-HPLC analysis
T1 sequence (whole entry): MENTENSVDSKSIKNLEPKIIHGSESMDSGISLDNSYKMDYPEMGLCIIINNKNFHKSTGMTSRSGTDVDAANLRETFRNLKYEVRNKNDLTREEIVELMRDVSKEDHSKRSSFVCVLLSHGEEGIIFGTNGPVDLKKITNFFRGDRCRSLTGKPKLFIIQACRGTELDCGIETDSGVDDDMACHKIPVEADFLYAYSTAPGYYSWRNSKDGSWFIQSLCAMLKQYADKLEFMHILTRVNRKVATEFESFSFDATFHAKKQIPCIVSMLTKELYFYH

Caspase-3 (Homo sapiens) [2] = biological target: T1, Caspase-3 (Homo sapiens); assay: Inhibition of recombinant human caspase-3 at 50 uM using fluorogenic peptide substrate Ac-DEVD-MCA after 30 mins incubation by spectrofluorometric method
[3] = Retention time of the compound by mass spectrometric analysis; assay type: physicochemical
Caspase-3 (Homo sapiens) [4] = biological target: T1, Caspase-3 (Homo sapiens); assay: Substrate activity at recombinant human caspase-3 assessed as SPQL-CONH2 formation after 1 hr by RP-HPLC analysis
Caspase-3 (Homo sapiens) [5] = biological target: T1, Caspase-3 (Homo sapiens); assay: Substrate activity at recombinant human caspase-3 assessed as Ac-STGSIDMVD-OH formation after 1 hr by MALDI-TOF/MS analysis
Caspase-3 (Homo sapiens) [6] = biological target: T1, Caspase-3 (Homo sapiens); assay: Substrate activity at recombinant human caspase-3 assessed as Ac-STGSIDMVD-OH formation after 1 hr by RP-HPLC analysis
Caspase-3 (Homo sapiens) [7] = biological target: T1, Caspase-3 (Homo sapiens); assay: Substrate activity at 3-fold excess recombinant human caspase-3 assessed as SIDMVD formation by RP-HPLC analysis; settings: TDE = time-dependent effect
Caspase-3 (Homo sapiens) [8] = biological target: T1, Caspase-3 (Homo sapiens); assay: Substrate activity at recombinant human caspase-3 assessed as SPQLAT-CONH2 formation after 1 hr by MALDI-TOF/MS analysis
Caspase-3 (Homo sapiens) [9] = biological target: T1, Caspase-3 (Homo sapiens); assay: Substrate activity at recombinant human caspase-3 assessed as SIDMVD formation after 1 hr by RP-HPLC analysis
Caspase-3 (Homo sapiens) [10] = biological target: T1, Caspase-3 (Homo sapiens); assay: Substrate activity at recombinant human caspase-3 assessed as SIDMVD formation after 1 hr by MALDI-TOF/MS analysis
Caspase-3 (Homo sapiens) [11] = biological target: T1, Caspase-3 (Homo sapiens); assay: Substrate activity at recombinant human caspase-3 assessed as enzyme-mediated compound cleavage after 1 hr in presence of casapase-3 inhibitor Ac-DQVD-aldehyde by RP-HPLC analysis
Caspase-3 (Homo sapiens) [12] = biological target: T1, Caspase-3 (Homo sapiens); assay: Substrate activity at recombinant human caspase-3 assessed as SPQLAT-CONH2 formation after 1 hr by RP-HPLC analysis
Caspase-3 (Homo sapiens) [13] = biological target: T1, Caspase-3 (Homo sapiens); assay: Substrate activity at 3-fold excess recombinant human caspase-3 assessed as SPQLAT formation by RP-HPLC analysis; settings: TDE = time-dependent effect

| SMILES | Activity (Caspase-3 (Homo sapiens) [1]) | Retention_time [3] | also measured |
| --- | --- | --- | --- |
| CC[C@H](C)[C@H](NC(=O)[C@H](CO)NC(=O)CNC(=O)[C@@H](NC(=O)[C@H](CO)NC(C)=O)[C@@H](C)O)C(=O)N[C@@H](CC(=O)O)C(=O)N[C@@H](CCSC)C(=O)N[C@H](C(=O)N[C@@H](CC(=O)O)C(=O)N[C@H](CO)C(=O)N1CCC[C@H]1C(=O)N[C@@H](CCC(N)=O)C(=O)N[C@@H](CC(C)C)C(=O)N[C@@H](C)C(N)=O)C(C)C | Active | – | – |
| CC[C@H](C)[C@H](NC(=O)[C@H](CO)NC(=O)CNC(=O)[C@@H](NC(=O)[C@H](CO)NC(C)=O)[C@@H](C)O)C(=O)N[C@@H](CC(=O)O)C(=O)N[C@@H](CCSC)C(=O)N[C@H](C(=O)N[C@H](CC(=O)O)C(=O)N[C@@H](CO)C(=O)N1CCC[C@H]1C(=O)N[C@@H](CCC(N)=O)C(=O)N[C@@H](CC(C)C)C(=O)N[C@@H](C)C(N)=O)C(C)C | inactive | – | – |
| CC(=O)N[C@@H](CC(=O)O)C(=O)N[C@@H](CCC(N)=O)C(=O)N[C@H](C(=O)N[C@H](C=O)CC(=O)O)C(C)C (Ac-DQVD-aldehyde) | – | – | inhibition (Caspase-3 (Homo sapiens) [2]): 97.3% |
| CC[C@H](C)[C@H](NC(=O)[C@H](CO)NC(=O)CNC(=O)[C@@H](NC(=O)[C@H](CO)NC(C)=O)[C@@H](C)O)C(=O)N[C@@H](CC(=O)O)C(=O)N[C@@H](CCSC)C(=O)N[C@H](C(=O)N[C@@H](CC(=O)O)C(=O)O)C(C)C (Ac-STGSIDMVD-OH) | – | 30.6 min | – |
| CC[C@H](C)[C@H](NC(=O)[C@H](CO)NC(=O)CNC(=O)[C@@H](NC(=O)[C@H](CO)NC(C)=O)[C@@H](C)O)C(=O)N[C@@H](CC(=O)O)C(=O)N[C@@H](CCSC)C(=O)N[C@H](C(=O)N[C@@H](CC(=O)O)C(=O)N[C@@H](CO)C(=O)N1CCC[C@H]1C(=O)N[C@@H](CCC(N)=O)C(=O)N[C@@H](CC(C)C)C(N)=O)C(C)C (Ac-STGSIDMVDSPQL-NH2) | – | 31.8 min | Activity (Caspase-3 (Homo sapiens) [4]): Active; Activity (Caspase-3 (Homo sapiens) [5]): Active; Activity (Caspase-3 (Homo sapiens) [6]): Active |
| CC[C@H](C)[C@H](NC(=O)[C@H](CO)NC(=O)CNC(=O)[C@@H](NC(=O)[C@H](CO)NC(C)=O)[C@@H](C)O)C(=O)N[C@@H](CC(=O)O)C(=O)N[C@@H](CCSC)C(=O)N[C@H](C(=O)N[C@@H](CC(=O)O)C(=O)NC(COP(=O)(O)O)C(=O)N1CCC[C@H]1C(=O)N[C@@H](CCC(N)=O)C(=O)N[C@@H](CC(C)C)C(=O)N[C@@H](C)C(N)=O)C(C)C (some centres not stated) (Ac-STGSIDMVD[ξpS]PQLA-NH2) | inactive | – | – |
| CC[C@H](C)[C@H](NC(=O)[C@@H](N)CO)C(=O)N[C@@H](CC(=O)O)C(=O)N[C@@H](CCSC)C(=O)N[C@H](C(=O)N[C@@H](CC(=O)O)C(=O)O)C(C)C (H-SIDMVD-OH) | – | 18.1 min | – |
| CC[C@H](C)[C@H](NC(=O)[C@@H](N)CO)C(=O)N[C@@H](CC(=O)O)C(=O)N[C@@H](CCSC)C(=O)N[C@H](C(=O)N[C@@H](CC(=O)O)C(=O)N[C@@H](CO)C(=O)N1CCC[C@H]1C(=O)N[C@@H](CCC(N)=O)C(=O)N[C@@H](CC(C)C)C(=O)N[C@@H](C)C(=O)N[C@H](C(N)=O)[C@@H](C)O)C(C)C (H-SIDMVDSPQLAT-NH2) | – | 27.9 min | Activity (Caspase-3 (Homo sapiens) [7]): Tde; Activity (Caspase-3 (Homo sapiens) [8]): Active; Activity (Caspase-3 (Homo sapiens) [9]): Active; Activity (Caspase-3 (Homo sapiens) [10]): Active; Activity (Caspase-3 (Homo sapiens) [11]): inactive; Activity (Caspase-3 (Homo sapiens) [12]): Active; Activity (Caspase-3 (Homo sapiens) [13]): Tde |
| CC[C@H](C)[C@H](NC(=O)[C@@H](N)CO)C(=O)N[C@@H](CC(=O)O)C(=O)N[C@@H](CCSC)C(=O)N[C@H](C(=O)N[C@@H](CC(=O)O)C(=O)NC(COP(=O)(O)O)C(=O)N1CCC[C@H]1C(=O)N[C@@H](CCC(N)=O)C(=O)N[C@@H](CC(C)C)C(=O)N[C@@H](C)C(=O)N[C@H](C(N)=O)[C@@H](C)O)C(C)C (some centres not stated) (H-SIDMVD[ξpS]PQLAT-NH2) | inactive | 26.3 min | – |
| CC(C)C[C@H](NC(=O)[C@H](CCC(N)=O)NC(=O)[C@@H]1CCCN1C(=O)[C@@H](N)CO)C(N)=O (H-SPQL-NH2) | – | 19.5 min | – |
| CC(C)C[C@H](NC(=O)[C@H](CCC(N)=O)NC(=O)[C@@H]1CCCN1C(=O)[C@@H](N)CO)C(=O)N[C@@H](C)C(=O)N[C@H](C(N)=O)[C@@H](C)O (H-SPQLAT-NH2) | – | 25.7 min | – |
